This passage reports EC50 and Emax results from patent publication US11725036B2, “Modified lipidated relaxin B chain peptides and their therapeutic use” (Sanofi, priority 2018, dated 2023).

This experiment concerns the target T1, RXFP1 (Homo sapiens, UniProt Q9HBX9).
T1 construct: OVCAR5 cells expressing endogenous RXFP1; endogenous in cells; host or cells: OVCAR5
T1 sequence (Q9HBX9 1-757): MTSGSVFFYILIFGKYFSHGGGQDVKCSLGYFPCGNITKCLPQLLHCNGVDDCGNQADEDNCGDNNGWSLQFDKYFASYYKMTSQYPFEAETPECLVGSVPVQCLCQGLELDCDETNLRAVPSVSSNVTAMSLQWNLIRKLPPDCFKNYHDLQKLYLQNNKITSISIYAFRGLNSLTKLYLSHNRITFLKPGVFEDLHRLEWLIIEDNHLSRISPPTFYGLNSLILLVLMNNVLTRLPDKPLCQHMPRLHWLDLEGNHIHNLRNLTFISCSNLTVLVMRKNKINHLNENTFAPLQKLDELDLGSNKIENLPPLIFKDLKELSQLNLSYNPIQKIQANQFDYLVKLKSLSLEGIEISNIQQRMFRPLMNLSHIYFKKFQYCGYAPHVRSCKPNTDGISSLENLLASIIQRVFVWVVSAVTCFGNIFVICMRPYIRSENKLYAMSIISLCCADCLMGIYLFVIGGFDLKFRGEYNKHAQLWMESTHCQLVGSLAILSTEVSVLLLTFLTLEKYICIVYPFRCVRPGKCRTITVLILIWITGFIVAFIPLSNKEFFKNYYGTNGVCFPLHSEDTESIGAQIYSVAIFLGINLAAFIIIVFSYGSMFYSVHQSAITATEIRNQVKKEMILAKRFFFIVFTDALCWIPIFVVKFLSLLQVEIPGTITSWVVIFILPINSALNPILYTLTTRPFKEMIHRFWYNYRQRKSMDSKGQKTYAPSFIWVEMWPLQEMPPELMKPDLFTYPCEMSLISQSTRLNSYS
Nature of the experiment: OVCAR5 cAMP assay (HTRF). Format: cell-based. Conditions: for EC50: OVCAR 5 cells expressing endogenous RXFP1, cAMP readout; for Emax: OVCAR 5 cells, maximal cAMP relative to H2-relaxin. A digest of the protocol: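 Endogenous RXFP1 in OVCAR5 cells, pretreated 40 min at 37° C with 1 mM IBMX, then exposed to increasing peptide concentrations in serum-free medium for 30 min at 37° C. cAMP read by HTRF; EC50 by variable-slope sigmoidal fit, Emax as % of H2-relaxin maximal cAMP in same run.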
A general note: Changes in cAMP serve as a functional read-out for many G protein-coupled receptors.

Molecules are shown by their SMILES. Starred links: 1 amine or outer side, 2 acyl side, 3 side chain; linkers in the order of their positions; H or OH if unused. Non-standard residues stand in square brackets, D forms with d. Residues, ends and D or L forms follow the SMILES beside them. Groups on a side chain read outwards from the residue. *: point of attachment. X11 = CCCCCCCCCCCCCCCCCC(=O)N[C@@H](CCC(=O)N[C@@H](CCC(=O)N[C@@H](CCC(=O)N[C@@H](CCC(=O)NCCCOCCOCCOCCCNC(=O)CCC(=O)NCCCOCCOCCOCCCNC(=O)CCC(=O)NCCCOCCOCCOCCCN*)C(=O)O)C(=O)O)C(=O)O)C(=O)O; X1 = CCCCCCCCCCCCCCCC(=O)N[C@@H](CCC(=O)N[C@@H](CCC(=O)N[C@@H](CCC(=O)NCCCOCCOCCOCCCNC(=O)CCC(=O)NCCCOCCOCCOCCCNC(=O)CCC(=O)NCCCOCCOCCOCCCN*)C(=O)O)C(=O)O)C(=O)O; X14 = CCCCCCCCCCCCCCCCCC(=O)N[C@@H](CCC(=O)N[C@@H](CCC(=O)N[C@@H](CCC(=O)N[C@@H](CCC(=O)NCCCOCCOCCOCCCNC(=O)CCC(=O)NCCCOCCOCCOCCCN*)C(=O)O)C(=O)O)C(=O)O)C(=O)O; Suc = O=C(CCC(=O)[*:2])[*:1]; αMeK = C[C@](N)(CCCCN)C(=O)O; Aib = CC(C)(N)C(=O)O

One may read the EC50 as the concentration giving half of the maximal effect. Low values mean higher potency in that assay, high ones lower potency in that assay. The term Emax denotes the size of the effect at its maximum, as opposed to the concentration needed. Turning to `CCCCCCCCCCCCCCCC(=O)N[C@@H](CCC(=O)N[C@@H](CCC(=O)N[C@@H](CCC(=O)NCCCOCCOCCOCCCNC(=O)CCC(=O)NCCCOCCOCCOCCCNC(=O)CCC(=O)NCCCOCCOCCOCCCNC(=O)CCC(=O)NCCCC[C@H](NC(=O)CNC(=O)[C@H](CCC(=O)O)NC(=O)C(C)(C)NC(=O)C(C)(C)NC(=O)[C@@H](NC(=O)[C@H](CCCCNC(C)=O)NC(=O)[C@H](C)NC(=O)[C@H](CCCNC(=N)N)NC(=O)[C@@H](NC(=O)[C@H](CCCCN)NC(=O)[C@H](CCC(=O)O)NC(=O)[C@H](CCCNC(=N)N)NC(=O)CNC(=O)[C@H](CCC(=O)O)NC(=O)[C@H](CC(C)C)NC(C)=O)C(C)C)[C@@H](C)CC)C(=O)N[C@@H](CO)C(=O)N[C@H](C(=O)N[C@@H](Cc1ccccc1)C(=O)N[C@@H](CO)C(=O)N[C@@](C)(CCCCN)C(=O)N[C@@H](CCCNC(=N)N)C(=O)N[C@@H](C)C(=O)N[C@@H](CCCCN)C(N)=O)[C@@H](C)O)C(=O)O)C(=O)O)C(=O)O` [compound 49] (Ac-LEGREKVRAK(Ac)I[Aib][Aib]EGK([Suc-X1])STFS[αMeK]RAK-NH2), the EC50 worked out at 0.19 nM and the Emax stood at 97%.

In turn, `CCCCCCCCCCCCCCCCCC(=O)N[C@@H](CCC(=O)N[C@@H](CCC(=O)N[C@@H](CCC(=O)N[C@@H](CCC(=O)NCCCOCCOCCOCCCNC(=O)CCC(=O)NCCCOCCOCCOCCCNC(=O)CCC(=O)NCCCOCCOCCOCCCNC(=O)CCC(=O)NCCCC[C@H](NC(=O)CNC(=O)[C@H](CCC(=O)O)NC(=O)C(C)(C)NC(=O)C(C)(C)NC(=O)[C@@H](NC(=O)[C@H](CCCCNC(C)=O)NC(=O)[C@H](C)NC(=O)[C@H](CCCNC(=N)N)NC(=O)[C@@H](NC(=O)[C@H](CCCCN)NC(=O)[C@H](CCC(=O)O)NC(=O)[C@H](CCCNC(=N)N)NC(=O)CNC(=O)[C@H](CCC(=O)O)NC(=O)[C@H](CC(C)C)NC(C)=O)C(C)C)[C@@H](C)CC)C(=O)N[C@@H](CO)C(=O)N[C@H](C(=O)N[C@@H](Cc1c[nH]c2ccccc12)C(=O)N[C@@H](CO)C(=O)NC(C)(C)C(=O)N[C@@H](CCCNC(=N)N)C(=O)N[C@@H](CCCCN)C(=O)N[C@@H](CCCCNC(C)=O)C(N)=O)[C@@H](C)O)C(=O)O)C(=O)O)C(=O)O)C(=O)O` [compound 51] (Ac-LEGREKVRAK(Ac)I[Aib][Aib]EGK([Suc-X11])STWS[Aib]RKK(Ac)-NH2) registered an EC50 of 0.1 nM and an Emax of 98%.

Turning to `CCCCCCCCCCCCCCCCCC(=O)N[C@@H](CCC(=O)N[C@@H](CCC(=O)N[C@@H](CCC(=O)N[C@@H](CCC(=O)NCCCOCCOCCOCCCNC(=O)CCC(=O)NCCCOCCOCCOCCCNC(=O)CCC(=O)NCCCC[C@H](NC(=O)CNC(=O)[C@H](CCC(=O)O)NC(=O)C(C)(C)NC(=O)C(C)(C)NC(=O)[C@@H](NC(=O)[C@H](CCCCNC(C)=O)NC(=O)[C@H](C)NC(=O)[C@H](CCCNC(=N)N)NC(=O)[C@@H](NC(=O)[C@H](CCCCN)NC(=O)[C@H](CCC(=O)O)NC(=O)[C@H](CCCNC(=N)N)NC(=O)CNC(=O)[C@H](CCC(=O)O)NC(=O)[C@H](CC(C)C)NC(C)=O)C(C)C)[C@@H](C)CC)C(=O)N[C@@H](CO)C(=O)N[C@H](C(=O)N[C@@H](Cc1c[nH]c2ccccc12)C(=O)N[C@@H](CO)C(=O)NC(C)(C)C(=O)N[C@@H](CCCNC(=N)N)C(=O)N[C@@H](CCCCN)C(=O)N[C@@H](CCCCNC(C)=O)C(N)=O)[C@@H](C)O)C(=O)O)C(=O)O)C(=O)O)C(=O)O` [compound 54] (Ac-LEGREKVRAK(Ac)I[Aib][Aib]EGK([Suc-X14])STWS[Aib]RKK(Ac)-NH2), the EC50 is 0.16 nM and the Emax came to 96%.
